Data published in BindingDB's records for doi:10.1016/j.ejmech.2020.112339 (China Pharmaceutical University, 2020).

Experiment: Inhibition of BTK in human TMD8 cells assessed as reduction in cell proliferation incubated for 24 hrs by CCK-8 assay

Q: Which IC50 does the source give for `C=CC(=O)Nc1cccc(Nc2ncnc(Nc3ccc(C(=O)N4CCCCC4)cc3)n2)c1` here?
A: Its IC50 is 4.36 µM.
